Test results from ChEMBL document CHEMBL3045366, “Pyridazin-3(2H)-ones: the versatile pharmacophore of medicinal significance” (Med Chem Res, 2013).
Each block holds one compound with its values, some of them ahead of it.

Assays:
[1] = Inhibition of acyl-coA cholesterol O-acyltransferase (unknown origin); set-up: species or system Homo sapiens
Thoracic aorta = test: Inodilatory activity in Wistar Rattus norvegicus (rat) thoracic aorta assessed as inhibition of phenylephrine-induced contraction; format: functional, tissue-based
Mus musculus = test: Anti-inflammatory activity in Mus musculus (mouse) assessed as inhibition of arachidonic acid-induced ear edema at 30 umol/kg, po relative to control; format: functional
[2] = Half life in Rattus norvegicus (rat); format: ADME, organism-based; conditions: in vivo

IC50 [1]: 57 µM
SMILES: CCCCCCn1nc(-c2ccccc2)c(-c2ccccc2)cc1=O

half-life [2]: 4.3 h
SMILES: O=C(O)COc1cccc2c1CC[C@H](Cn1nc(C(c3ccccc3)c3ccccc3)ccc1=O)C2

More lines, now with the values behind:

SMILES: CS(=O)(=O)Nc1ccc(C2=NN(c3ccccc3)C(=O)CC2)cc1
IC50 (Thoracic aorta): 0.08 µM

SMILES: CCOc1ccc(C2=NN(CCCCOc3ccc(C4=NNC(=O)CC4C)cc3)C(=O)C3CC=CCC23)cc1OCC (stereo not given)
inhibition in vivo at 30 µmol/kg (Mus musculus): 46%

SMILES: COc1ccc(C2=NN(CCCCOc3ccc(C4=NNC(=O)CC4C)cc3)C(=O)C3CC=CCC23)cc1Cl (stereo not given)
inhibition in vivo at 30 µmol/kg (Mus musculus): 46%
